Measured values from publication PMC10265003 (Royal Society Open Science, 2023).
Like-named read-outs stand apart in the source and are kept apart here. Positions of bridges follow the written chain, without caps; N, C: chain ends. Non-standard residues stand in square brackets, D forms with d. Residues, ends and D or L forms follow the SMILES beside them. Chains are numbered I, II in the order given. Bpa = N[C@@H](Cc1ccc(C(=O)c2ccccc2)cc1)C(=O)O; Dip = N[C@H](C(=O)O)C(c1ccccc1)c1ccccc1; Ahx = NCCCCCC(=O)O

Test system: MCF-7 breast cancer line
Format: cell-based, human
Protocol: The MTT assay was performed in accordance with previous reports. Briefly, the cells were seeded with a complete medium in 96-well plates at a rate of 10 000 cells and 100 µl per well, and adhesion to the plates was allowed for 24 h. Later, the complete medium was removed, and an incomplete medium was added for synchronization for another 24 h. The cells were then incubated at 37°C for 2 h with 100 µl of peptide at the evaluated concentrations (200, 100, 50, 25, 12.5 and 6.25 µg ml^−1). Next, the peptide was removed from the well and 100 µl of incomplete medium with 10% MTT was added and incubated for 4 h. The medium was replaced with 100 µl of isopropanol, and after 30 min of incubation at 37°C, the absorbance was measured at 575 nm. As a negative control, an incomplete culture medium with 10% MTT was used, and as a positive control, cells without MTT treatment were used. The IC50 value was determined from figure 1 (peptide concentration versus per cent cell viability) using a nonlinear regression model with variable slope and GraphPad Prism 9 statistical analysis software.

IC50 (2 h) | Structure (SMILES) | IC50 (MTT, MCF-7, peptide treatment for 2 hours at 37°C, three independent experiments with n = 4, nonlinear regression, read-out: IC50)
 | CC(C)C[C@H](NC(=O)[C@H](CCCCN)NC(=O)[C@H](CCCCN)NC(=O)[C@H](Cc1ccc(C(=O)c2ccccc2)cc1)NC(=O)[C@H](CCCNC(=N)N)NC(=O)[C@H](Cc1c[nH]c2ccccc12)NC(=O)[C@H](CCC(N)=O)NC(=O)[C@H](Cc1c[nH]c2ccccc12)NC(=O)[C@H](CCCNC(=N)N)NC(=O)[C@@H](N)CCCNC(=N)N)C(=O)NCC(=O)NCCCC[C@H](NC(=O)CNC(=O)[C@H](CC(C)C)NC(=O)[C@H](CCCCN)NC(=O)[C@H](CCCCN)NC(=O)[C@H](Cc1ccc(C(=O)c2ccccc2)cc1)NC(=O)[C@H](CCCNC(=N)N)NC(=O)[C@H](Cc1c[nH]c2ccccc12)NC(=O)[C@H](CCC(N)=O)NC(=O)[C@H](Cc1c[nH]c2ccccc12)NC(=O)[C@H](CCCNC(=N)N)NC(=O)[C@@H](N)CCCNC(=N)N)C(=O)NCCCCCC(N)=O [^26[Bpa], (RRWQWR-Bpa-KKLG)2-K-Ahx] (I: H-RRWQWR[Bpa]KKLGK[Ahx]-NH2 / II: H-RRWQWR[Bpa]KKLG; amide I:12-II:C) | 17 µM
34 µM | CC(C)C[C@H](NC(=O)[C@H](CCCCN)NC(=O)[C@H](CCCCN)NC(=O)[C@@H](NC(=O)[C@H](CCCNC(=N)N)NC(=O)[C@H](Cc1c[nH]c2ccccc12)NC(=O)[C@H](CCC(N)=O)NC(=O)[C@H](Cc1c[nH]c2ccccc12)NC(=O)[C@H](CCCNC(=N)N)NC(=O)[C@@H](N)CCCNC(=N)N)C(c1ccccc1)c1ccccc1)C(=O)NCC(=O)NCCCC[C@H](NC(=O)CNC(=O)[C@H](CC(C)C)NC(=O)[C@H](CCCCN)NC(=O)[C@H](CCCCN)NC(=O)[C@@H](NC(=O)[C@H](CCCNC(=N)N)NC(=O)[C@H](Cc1c[nH]c2ccccc12)NC(=O)[C@H](CCC(N)=O)NC(=O)[C@H](Cc1c[nH]c2ccccc12)NC(=O)[C@H](CCCNC(=N)N)NC(=O)[C@@H](N)CCCNC(=N)N)C(c1ccccc1)c1ccccc1)C(=O)NCCCCCC(N)=O [^26[Dip], (RRWQWR-Dip-KKLG)2-K-Ahx] (I: H-RRWQWR[Dip]KKLGK[Ahx]-NH2 / II: H-RRWQWR[Dip]KKLG; amide I:12-II:C) | 
